According to US7504403B2, “Substituted heterocyclic compounds and methods of use” (Amgen Inc., priority 2004, dated 2009):

The molecules below were run on LPS induced TNF release (assay: Lipopolysaccharide-Activated THP1 Cell TNF Production Assay). Details: Homo sapiens, THP-1.
Format: cell-based
Description: Lipopolysaccharide-Activated THP1 Cell TNF Production Assay
THP1 cells are resuspended in fresh THP1 media (RPMI 1640, 10% heat-inactivated FBS, 1×PGS, 1×NEAA, plus 30 μM βME) at a concentration of 1E6/mL. One hundred microliters of cells per well are plated in a polystyrene 96-well tissue culture. One microgram per mL of bacterial LPS is prepared in THP1 media and is transferred to the wells. Test compounds are dissolved in 100% DMSO and are serially diluted 3 fold in a polypropylene 96-well microtiter plate (drug plate). HI control and LO control wells contain only DMSO. One microliter of test compound from the drug plate followed by 10 μL of LPS are transferred to the cell plate. The treated cells are induced to synthesize and secrete TNF-α at 37° C. for 3 h. Forty microliters of conditioned media are transferred to a 96-well polypropylene plate containing 110 μL of ECL buffer (50 mM Tris-HCl pH 8.0, 100 mM NaCl, 0.05% Tween 20, 0.05% NaN3 and 1%FBS) supplemented with 0.44 nM MAB610 monoclonal Ab (R&D Systems), 0.34 nM ruthenylated AF210NA polyclonal Ab (R&D Systems) and 44 μg/mL sheep anti-mouse M280 Dynabeads (Dynal). After a 2 h incubation at room temperature with shaking, the reaction is read on the ECL M8 Instrument (IGEN Inc.). A low voltage is applied to the ruthenylated TNF-α immune complexes, which in the presence of TPA (the active component in Origlo), results in a cyclical redox reaction generating light at […]. The amount of secreted TNF-α in the presence of compound compared with that in the presence of DMSO vehicle alone (HI control) is calculated using the formula: % control (POC)=(cpd−average LO)/(average HI−average LO)*100. Data (consisting of POC and inhibitor concentration in μM) is fitted to a 4-parameter equation (y=A+((B−A)/(1+((x/C)^D))), where A is the minimum y (POC) value, B is the maximum y (POC), C is the x (cpd concentration) at the point of inflection and D is the slope factor) using a Levenburg-Marquardt non-linear regression algorithm.

Structure (SMILES)	IC50 [µM]
C[C@H](Nc1nccc(N2CCCn3c2nc(-c2ccccc2F)cc3=O)n1)c1ccccc1 [Example 2, 2-(2-fluorophenyl)-9-[2-(1(S)-phenyl-ethylamino)-pyrimidin-4-yl]-6,7,8,9-tetrahydro-pyrimido[1,2-a]pyrimidin-4-one]	≤ 20
Nc1nccc(N2CCCn3c2nc(-c2ccccc2)cc3=O)n1 [Example 38, 9-(2-{2-amino}-pyrimidin-4-yl)-2-phenyl-6,7,8,9-tetrahydro-pyrimido[1,2-a]pyrimidin-4-one]	≤ 20
O=c1cc(-c2ccccc2)cc2n1CCCN2c1cc(NCCc2ccccc2)ncn1 [Example 85, 1-(6-Phenethylamino-pyrimidin-4-yl)-8-phenyl-1,2,3,4-tetrahydro-pyrido[1,2-a]pyrimidin-6-one]	≤ 20
COc1ccc(-c2cc(=O)n3c(n2)N(c2ccnc(N[C@@H](C)c4ccccc4)n2)CCC3)cc1 [Example 5, 2-(4-methoxyphenyl)-9-[2-(1(S)-phenyl-ethylamino)-pyrimidin-4-yl]-6,7,8,9-tetrahydro-pyrimido[1,2-a]pyrimidin-4-one]	≤ 20
CC(Nc1nccc(N2CC(O)Cn3c2nc(-c2ccccc2)cc3=O)n1)c1ccccc1 (centres unmarked) [Example 66, 7-Hydroxy-2-phenyl-9-[2-(1-phenyl-ethylamino)-pyrimidin-4-yl]-6,7,8,9-tetrahydro-pyrimido[1,2-a]pyrimidin-4-one]	≤ 20
C[C@H](Nc1nccc(N2CCCn3c2cc(-c2ccccc2)cc3=O)n1)c1ccccc1 [Example 78]	≤ 20
CC(Cc1cccc(CO)c1)Nc1nccc(N2CCCn3c2cc(-c2ccccc2)cc3=O)n1 (centres unmarked) [Example 83, 1-{2-[2-(3-Hydroxymethyl-phenyl)-1-methyl-ethylamino]-pyrimidin-4-yl}-8-phenyl-1,2,3,4-tetrahydro-pyrido[1,2-a]pyrimidin-6-one]	≤ 20
CC(Cc1cccc(C(C)(C)N)c1)Nc1nccc(N2CCC(=O)N3CC=C(c4ccccc4)N=C32)n1 (centres unmarked) [Example 65, 1-(2-{2-[3-(1-Amino-1-methyl-ethyl)-phenyl]-1-methyl-ethylamino}-pyrimidin-4-yl)-8-phenyl-1,2,3,6-tetrahydro-pyrimido[1,2-a]pyrimidin-4-one]	≤ 20
C[C@H](Cc1cccc(CN)c1)Nc1nccc(N2CCCn3c2nc(-c2ccccc2)cc3=O)n1 [9-{2-[2-(3-aminomethyl-phenyl)-1(R)-methyl-ethylamino]-pyrimidin-4-yl}-2-phenyl-6,7,8,9-tetrahydro-pyrimido[1,2-a]pyrimidin-4-one]	≤ 20
O=c1cc(-c2ccccc2)nc2n1CCCN2c1ccnc(NCc2ccccc2)n1 [Example 29, 9-(2-{2-(benzyl)amino}-pyrimidin-4-yl)-2-phenyl-6,7,8,9-tetrahydro-pyrimido[1,2-a]pyrimidin-4-one]	≤ 20
C[C@H](Nc1nccc(N2CCCn3c2nc(-c2ccc(F)cc2)cc3=O)n1)c1ccccc1 [Example 4, 2-(4-fluorophenyl)-9-[2-(1(S)-phenyl-ethylamino)-pyrimidin-4-yl]-6,7,8,9-tetrahydro-pyrimido[1,2-a]pyrimidin-4-one]	≤ 20
Cc1ccc(-c2cc(=O)n3c(n2)N(c2ccnc(N[C@@H](C)c4ccccc4)n2)CCC3)cc1C [Example 1, 2-(3,4-Dimethyl-phenyl)-9-[2-(1(S)-phenyl-ethylamino) -pyrimidin-4-yl]-6,7,8,9-tetrahydro-pyrimido[1,2-a]pyrimidin-4-one]	≤ 20
CC(Cc1cccc(CO)c1)Nc1nccc(N2CCCn3c2nc(-c2ccccc2)cc3=O)n1 (centres unmarked) [Example 47, 9-{2-[2-(3-Hydroxymethyl-phenyl)-1-methyl-ethylamino]-pyrimidin-4-yl}-2-phenyl-6,7,8,9-tetrahydro-pyrimido[1,2-a]pyrimidin-4-one]	≤ 20
CCOC(=O)CCC1CN(c2ccnc(NCCc3ccccc3)n2)c2nc(-c3ccccc3)cc(=O)n2C1 (centres unmarked) [Example 54, 3-[6-oxo-1-(2-phenethylamino-pyrimidin-4-yl)-8-phenyl-1,3,4,6-tetrahydro-2H-pyrimido[1,2-a]pyrimidin-3-yl]-propionic acid ethyl ester]	≤ 20
